Laboratory results as given in PMC9280334 (Frontiers in Chemistry, 2022).
Several values for one entry are separate records, joined by “and”; a condition that tells them apart may be missing. Identical values can stand only once.

What was measured:
AChE (electric eel) = molecular target: T1, AChE (electric eel) (Electrophorus electricus, UniProt O42275); assay: biochemical; assay type: biochemical; details: for IC50: electric eel AChE, mean ± SEM of three experiments
T1 construct: purchased Sigma-Aldrich
T1 sequence (O42275 24-633): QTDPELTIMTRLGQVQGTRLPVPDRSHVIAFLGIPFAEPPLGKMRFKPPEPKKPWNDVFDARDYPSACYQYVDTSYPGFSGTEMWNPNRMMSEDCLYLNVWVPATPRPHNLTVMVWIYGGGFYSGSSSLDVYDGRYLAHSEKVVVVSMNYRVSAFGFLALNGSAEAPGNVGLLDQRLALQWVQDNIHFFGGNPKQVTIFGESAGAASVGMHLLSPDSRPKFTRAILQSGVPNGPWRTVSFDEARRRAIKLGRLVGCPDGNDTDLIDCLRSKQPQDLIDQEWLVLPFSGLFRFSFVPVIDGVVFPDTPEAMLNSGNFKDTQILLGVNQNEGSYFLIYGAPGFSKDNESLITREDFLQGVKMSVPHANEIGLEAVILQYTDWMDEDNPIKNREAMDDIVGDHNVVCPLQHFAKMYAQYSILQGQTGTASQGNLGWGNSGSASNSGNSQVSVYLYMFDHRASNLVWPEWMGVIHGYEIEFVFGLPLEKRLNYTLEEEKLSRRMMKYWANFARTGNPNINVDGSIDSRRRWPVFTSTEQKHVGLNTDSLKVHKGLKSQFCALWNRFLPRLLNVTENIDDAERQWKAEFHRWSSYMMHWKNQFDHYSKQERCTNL
Description: (§1) AChE, BuChE, 5,5'-dithiobis (2-nitrobenzoic acid) (DTNB), acetyl- and butyrylthiocholine iodides were purchased from Sigma-Aldrich. Five different concentrations of the corresponding compounds in ethanol-DMSO (9:1) were prepared. […] After 3 min of incubation, the substrate solution (acetylthiocholine iodide or butyrylthiocholine iodide, 0.05 M) was added and then incubated for at least 1 min at 25°C. […] The inhibition curve was obtained by plotting the percentage of enzyme activity (100% for the reference) versus the logarithm of the tested compound concentration. […]

BuChE (equine serum) = molecular target: T2, BuChE (equine serum) (Equus caballus, UniProt P81908); assay: biochemical; assay type: biochemical; details: for IC50: equine serum BuChE, mean ± SEM of three experiments
T2 construct: purchased Sigma-Aldrich
T2 sequence (P81908 whole entry): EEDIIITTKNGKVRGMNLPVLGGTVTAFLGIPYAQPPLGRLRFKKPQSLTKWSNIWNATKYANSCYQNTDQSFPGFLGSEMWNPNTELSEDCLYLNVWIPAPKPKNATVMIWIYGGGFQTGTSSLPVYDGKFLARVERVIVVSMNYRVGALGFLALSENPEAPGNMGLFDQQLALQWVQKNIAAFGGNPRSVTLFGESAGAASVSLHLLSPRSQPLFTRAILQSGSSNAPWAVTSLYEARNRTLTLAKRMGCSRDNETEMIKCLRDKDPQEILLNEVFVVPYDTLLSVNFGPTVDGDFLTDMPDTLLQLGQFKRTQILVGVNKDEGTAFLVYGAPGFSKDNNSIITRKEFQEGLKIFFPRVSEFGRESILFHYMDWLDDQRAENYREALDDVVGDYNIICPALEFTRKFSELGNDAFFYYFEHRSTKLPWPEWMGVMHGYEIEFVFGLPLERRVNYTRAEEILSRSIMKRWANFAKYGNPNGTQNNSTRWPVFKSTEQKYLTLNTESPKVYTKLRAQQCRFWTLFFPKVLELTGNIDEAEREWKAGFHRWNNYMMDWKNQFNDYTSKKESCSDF
Description: as §1

PC12 cells = assay: Neuroprotection against H2O2-induced cell death in PC12 cells (MTT); assay type: cell-based; details: H2O2 (150 μM)-induced injury, mean ± SEM
Description: The cell viability was measured using MTT [3-(4,5-dimethylthiazol-2-yl)-2,5-diphenyl tetrazolium bromide] assay ([Datki et al., 2003]). PC12 cells (from the Iranian Biological Resource Center, IBRC) received different treatments, including no treatment (control), 150 μM H2O2 alone, or 150 μM H2O2 in combination with 0.1–50 μM of the tested compound. The cells were seeded at 1 × 10^4 cells/well and incubated at 37 °C under a 5% CO2 atmosphere for 24 h, then treated with the tested compound and incubated for 3 h. Next, the cells were exposed to H2O2 for 2 h again. The MTT solution (20 μl, 5 mg/ml) was next replaced with the medium and incubated for 4 h. 100 μl of DMSO was added to dissolve the formazan precipitate. Absorbance was then measured at 570 nm using a multi-mode plate reader (Biotek, Winooski, VT). Cell viability is expressed as a percentage relative to the untreated control.

SH-SY5Y cells [1] = assay: Cytotoxicity on SH-SY5Y cells (MTT); assay type: cell-based, human; details: for Cytotoxic effect on SH-SY5Y cells: 1 μM; for SH-SY5Y cell viability (% of control): cytotoxic effect, 1 µM compound alone, MTT, mean ± SEM
Description: (§2) Cell culture chemicals were purchased from Lonza, HyClone, or Thermo Scientific. Human neuroblastoma SH-SY5Y cells were maintained in Dulbecco’s modified Eagle’s medium (DMEM) supplemented with 10% FBS, 1% L-glutamine, and 1% antibiotic mix at 37°C in a humidified atmosphere containing 5% CO2. Cell viability was determined using a thiazolyl blue tetrazolium bromide [3-(4,5-dimethyl-2-thiazolyl)-2,5-diphenyl-2H-tetrazolium bromide] (MTT) assay ([Datki et al., 2003]). SH-SY5Y cells were seeded into 384-well plates at 3,000 cells per well and treated with novel compounds at a concentration of 1 μM, 3 h prior to the addition of Aβ1–42 (5 μM). After 24 h of incubation, 5 μl of the MTT reagent (5 mg/ml) was added to each well. 40 μl of DMSO was used to dissolve formazan crystals. Absorbance values were measured at 690 and 570 nm using a BMG Omega Fluorostar microplate reader.

SH-SY5Y cells [2] = assay: Neuroprotection against Aβ1-42-induced cytotoxicity in SH-SY5Y cells (MTT); assay type: cell-based, human; details: for SH-SY5Y cell viability (% of control): 1 µM compound before 5 μM Aβ1-42, MTT, mean ± SEM
Description: as §2, with “(MTT) assay ([Datki et al., 2003]).” left out

Aβ1-42 = molecular target: T3, Aβ1-42 (Homo sapiens, UniProt P05067); assay: Inhibition of self-induced Aβ1-42 aggregation (ThT assay); assay type: biochemical; details: for Inhibition of self-induced Aβ aggregation: Aβ1-42 20 μM, compound 100 μM, after 48 h, ThT, mean ± SEM of three experiments; for Inhibition of Aβ aggregation, fold more effective than the reference drug donepezil: self-induced Aβ aggregation, ThT assay
T3 construct: Amyloid-β protein 1–42 (Sigma A9810) was dissolved; purchased Sigma A9810
T3 sequence (P05067 672-713 limits assumed): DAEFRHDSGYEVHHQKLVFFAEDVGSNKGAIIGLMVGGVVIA
Description: Inhibitory properties of the compounds on self-induced and AChE-induced aggregation of amyloid-β protein 1–42 was determined using a thioflavin T (ThT)-based fluorescence assay with slight modifications ([Levine, 1993]). The ThT excitation/emission was measured at 448 nm/490 nm at 48 h using a SpectraMax® Microplate Reader. Amyloid-β protein 1–42 (Sigma A9810) was dissolved in Phosphate Buffer Saline pH 7.4 (PBS, HyClone Thermo Scientific) containing ammonium hydroxide (1%). Aβ1-42 (50 μM) was incubated for 24 h at 37°C for prefibrillation.
(§3) To determine AChE-induced Aβ1-42 aggregation, Aβ1-42 (20 μl) ± human recombinant AChE (0.01 u/ml, Sigma C1682) were added to […] of PBS buffer pH 7.4 including 0.15 M NaCl and 20 μM thioflavin T (ThT). The mixture was incubated at 37°C in the absence and presence of the compounds (100 μM) and the fluorescence intensities were determined. Due to the presence of the tested compounds, inhibition of self- or AChE-induced aggregation percent was determined by the following calculation: [100-((IFi/IFo) × 100)] where IFi and IFo are the fluorescence intensities obtained for Aβ ± AChE in the presence and in the absence of inhibitors.

[3] = molecular target: T4, Aβ1-42 and AChE (human recombinant AChE) (Homo sapiens, UniProt P22303); assay: Inhibition of AChE-induced Aβ1-42 aggregation (ThT assay); assay type: biochemical; details: Aβ1-42 and AChE (0.01 u/ml), compound 100 μM, mean ± SEM of three experiments, read-out: Inhibition of AChE-induced Aβ aggregation
T4 construct: Amyloid-β protein 1–42 (Sigma A9810) was dissolved; purchased Sigma C1682 (AChE); A9810 (Aβ1-42)
T4 sequence (P22303 32-614): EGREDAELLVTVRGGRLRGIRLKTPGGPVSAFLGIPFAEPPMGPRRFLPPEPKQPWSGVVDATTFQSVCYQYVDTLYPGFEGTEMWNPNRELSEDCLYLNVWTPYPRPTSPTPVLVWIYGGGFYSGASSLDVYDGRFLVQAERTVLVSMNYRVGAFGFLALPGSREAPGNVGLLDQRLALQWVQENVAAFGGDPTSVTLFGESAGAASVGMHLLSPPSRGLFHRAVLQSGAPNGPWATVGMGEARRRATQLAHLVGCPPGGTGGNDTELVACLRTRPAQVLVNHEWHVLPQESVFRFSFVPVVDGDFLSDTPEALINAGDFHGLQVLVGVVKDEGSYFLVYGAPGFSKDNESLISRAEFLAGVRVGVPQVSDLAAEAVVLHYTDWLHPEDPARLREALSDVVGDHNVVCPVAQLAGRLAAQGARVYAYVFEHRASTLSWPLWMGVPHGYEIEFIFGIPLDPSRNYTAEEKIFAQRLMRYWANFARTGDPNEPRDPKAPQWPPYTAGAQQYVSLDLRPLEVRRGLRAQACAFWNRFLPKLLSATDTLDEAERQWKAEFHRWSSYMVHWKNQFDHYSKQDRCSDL
Description: Amyloid-β protein 1–42 (Sigma A9810) was dissolved in Phosphate Buffer Saline pH 7.4 (PBS, HyClone Thermo Scientific) containing ammonium hydroxide (1%). Aβ1-42 (50 μM) was incubated for 24 h at 37°C for prefibrillation.
as §3

[4] = ratio of IC50 values vs Donepezil

Structure (SMILES) | IC50 (AChE (electric eel)) [nM] | IC50 (BuChE (equine serum)) [nM] | PC12 cell viability (% of control) (PC12 cells; 0.1 μM compound) | PC12 cell viability (% of control) (PC12 cells; 1 μM compound) | PC12 cell viability (% of control) (PC12 cells; 5 μM compound) | PC12 cell viability (% of control) (PC12 cells; 10 μM compound) | PC12 cell viability (% of control) (PC12 cells; 20 μM compound) | PC12 cell viability (% of control) (PC12 cells; 50 μM compound) | Cytotoxic effect on SH-SY5Y cells (SH-SY5Y cells [1]) | SH-SY5Y cell viability (% of control) (SH-SY5Y cells [1]) | SH-SY5Y cell viability (% of control) (SH-SY5Y cells [2]) | Inhibition of self-induced Aβ aggregation (Aβ1-42) [%] | Inhibition of Aβ aggregation, fold more effective than the reference drug donepezil (Aβ1-42) | inhibition at 100 µM [3] [%] | AChE inhibition, times more active than the standard drug Donepezil (AChE (electric eel); [4]) [times] | BuChE inhibition, times more active than the standard drug Donepezil (BuChE (equine serum); [4]) [times] | Neuroprotective effect against Aβ1-42-induced cytotoxicity in SH-SY5Y cells (SH-SY5Y cells [2]; 1 μM)
O=c1oc2ccccc2cc1-c1ccc(OCCC[n+]2ccccc2)cc1.[Br-] [Compound 3a, 1-(3-(4-(2-Oxo-2H-chromen-3-yl)phenoxy)propyl)pyridinium Bromide] | 4 | 84 ± 4 | 39.4 ± 1.7 % of control | 42.2 ± 1.3 % of control | 53.6 ± 1.4 % of control | 55.6 ± 0.1 % of control | 57.4 ± 0.4 % of control | 58.3 ± 1.4 % of control | no cytotoxic effect | 81.2 ± 10.0 % of control | 79 % of control and 79.1 ± 4.0 % of control | 73.3 ± 15.4 | about 2 fold | 76 ± 1.6 | – | – | –
O=c1oc2ccc([N+](=O)[O-])cc2cc1-c1ccc(OCCC[n+]2ccccc2)cc1.[Br-] [Compound 3f, 1-(3-(4-(6-Nitro-2-oxo-2H-chromen-3-yl)phenoxy)propyl)pyridinium Bromide] | 2 | 24 ± 5 | 34.1 ± 1.0 % of control | 42.8 ± 1.4 % of control | 43.1 ± 1.5 % of control | 45.0 ± 0.8 % of control | 48.3 ± 0.4 % of control | 50.8 ± 0.6 % of control | no cytotoxic effect | 83.6 ± 3.4 % of control | 89 % of control and 89.0 ± 9.8 % of control | 84.7 ± 1.6 | about 2 fold | 87.2 ± 5.7 | 7 | – | –
CN(C)c1cc[n+](CCCOc2ccc(-c3cc4cc([N+](=O)[O-])ccc4oc3=O)cc2)cc1.[Br-] [Compound 3t, 4-(Dimethylamino)-1-(3-(4-(6-nitro-2-oxo-2H-chromen-3-yl)phenoxy)propyl)pyridin-1-ium Bromide] | 14 ± 0.9 | 9 ± 0.4 | 38.3 ± 0.9 % of control | 45.3 ± 0.7 % of control | 53.6 ± 0.7 % of control | 56.3 ± 1.6 % of control | 68.2 ± 0.1 % of control | 71.8 ± 1.1 % of control | no cytotoxic effect | 84.8 ± 6.8 % of control | 59.7 ± 2.8 % of control | 66.4 ± 4.7 | about 2 fold | 52.5 ± 4.9 | – | 305 | could not protect neuronal cells
